Results on three compounds are retold here after patent US8426175B2, “Method for the production of a fermentation product from a pretreated lignocellulosic feedstock” (Iogen Energy Corporation, priority 2007, dated 2013).

Data set [1] relates to bacteria in contaminated yeast slurry. The data set can be described thus: Bacterial enumeration on TSA + cycloheximide plates after ClO2 treatment of contaminated yeast slurry. Format: cell-based.
Description: (§2) The yeast was concentrated by centrifugation (4 min, 4000 rpm) and resuspended in the original, contaminated supernatant to 20 g/L, 200 g/L or 300 g/L. Contamination was verified microscopically. The three slurries produced were cooled in an ice-water bath treated with either ClO2 at 0, 10, 50, 250, 500, 750 and 1000 ppm, serially diluted and plated on YM agar (3.0 g/L yeast extract, 3.0 g/L malt extract, 5 g/L peptone, 10 g/L glucose, 20 g/L agar)+chloramphenicol (34 μg/mL) plates for yeast and TSA (15 g/L pancreatic casein digest, 5 g/L enzymatic soy meal digest, 5 g/L NaCl, 15 g/L agar)+cycloheximide (0.05 μg/mL) plates for bacterial enumeration. Plates were incubated overnight at 30° C. and 37° C. for yeast and bacteria, respectively. Plates were counted the next day and bacterial colonies were verified microscopically.
Data set [2] relates to contaminated recombinant Saccharomyces cultures. The data set can be described thus: Batch fermentation of xylose to ethanol inoculated with chlorine dioxide-treated, recycled yeast slurry. It counts as cell-based. As to the method: Saccharomyces cells from a frozen glycerol stock were used to inoculate 4 L of Sc Inoculation Medium (pH 6). The inoculum was grown with shaking at 160 rpm for 24 h at 30° C. The cells were harvested by centrifugation (4000 rpm for 5 min) and the entire cell pellet was resuspended in about 50 mL of the supernatant and this was used to inoculate 20 L of Sc Propagation Medium (pH 5.0). A fed-batch fermentation was run for 4 days with mild aeration of 56 slpm and 500 rpm agitation by mechanical stirring. The pH was maintained at 5.0 and the temperature was maintained at 30° C. for the first two days followed by 28° C. for the last two days. A 60 g/L glucose solution was fed to the vessel at a rate of 83.3 mL/h. The culture was sampled three times daily and the samples analyzed for cell growth, xylose and glucose. At the end of the fermentation, the entire broth was harvested and the cells concentrated by centrifugation (4000 rpm for 5 min in multiple 4 L Nalgene bottles). The cell pellets were resuspended to a concentration of 22.5 g cell mass/L. This was used to inoculate 10 L of Sc Fermentation Medium. Batch fermentation was run for 2-3 days with 1 slpm aeration, 250 rpm mechanical agitation. The pH was maintained at 6.0 and the temperature maintained at 28-30° C. The culture was sampled three times daily and the samples analyzed for cell growth, xylose glucose and ethanol.
(§1) Xylose and glucose concentrations of each sample were measured as follows: 2 mL of the broth were centrifuged at 14,000 rpm for 3 min to remove cells and the supernatant filtered through a 0.2 μm syringe filter. 10× dilutions of the supernatant were prepared in 5 mM sulfuric acid solution. Dilutions were analyzed via HPLC using an Agilent 1100 Series HPLC stem equipped with an 1100 Series Autosampler and Pumping System and Chemstation control software. A Varian MetaCarb 87H column maintained at 50° C. was used for separation. The eluant was a 5 mM aqueous sulfuric acid solution with a flow rate of 0.600 mL/min. Glucose, ethanol, xylose and xylitol were quantified using an Agilent 1100 Series Refractive Index Detector. Acetic acid and lactic acid were measured using an Agilent 1200 Series Variable Wavelength Detector.
[…] The yeast slurry was treated with chlorine dioxide at 50 ppm, 300 ppm and 500 ppm. The yeast slurry was used to re-inoculate fermentors containing 10 L of Sc Fermentation Medium run in batch mode at a starting yeast concentration targeted at 22.5 g/L yeast, as described in Example 2a. The culture was sampled three times daily and the samples analyzed for xylose, lactic acid and ethanol as described in Example 2a.

The test system of data set [3] is bacterially contaminated Candida tropicalis culture. The data set can be described thus: Batch fermentation of xylose to xylitol inoculated with chlorine dioxide-treated, recycled yeast slurry. Format: cell-based. The following applies: yeast slurry treated with 100 ppm at room temperature (FIG. 5). As to the method:
as §1
C. tropicalis cells from a frozen glycerol stock used to inoculate 2 L of Ct Inoculation Medium. The inoculum was grown with shaking at 160 rpm for 24 h at 30° C. The cells were harvested by centrifugation and the entire cell pellet was used to inoculate 2 L of Ct Xylose Medium. This culture was grown with shaking at 160 rpm for 24 h at 30° C. and the broth was used to inoculate 10 L of Ct Fermentation Medium. […] The culture was sampled three times daily and the samples analyzed for cell growth, xylose and xylitol as described in Example 2a. […]

The next data set concerns Saccharomyces yeast. The following applies: for impact on the viability of the yeast: 500 ppm or higher.
The next data set deals with Lactobacillus strains. The following applies: cited from earlier work.
The mark [4] stands for this setting: 200 g/L yeast slurry treated at 300 ppm (FIG. 3B).
[5] abbreviates: 300 g/L yeast slurry treated at 500 ppm (FIG. 3C).

Like-named read-outs stand apart in the source and are kept apart here.

Description for Saccharomyces yeast: as §2

With `[O][Cl+][O-]` [chlorine dioxide], in data set [1] (20 g/L yeast cell suspension), the “chlorine dioxide dosage that effectively suppresses bacterial growth” value is no less than 250 ppm. The “chlorine dioxide dosage required for effective bacterial decontamination” value in data set [1] (200 g/L yeast suspension) and in data set [1] (300 g/L yeast suspension) was no less than 500 ppm throughout. Also, the “ethanol product produced versus culture from slurry treated with 50 ppm” value in data set [2] (setting [4]) and in data set [2] (setting [5]) was “significantly more” each time. Besides, the “unwanted lactic acid byproduct produced versus culture from slurry treated with 50 ppm” value in data set [2] (setting [4]) and in data set [2] (setting [5]) was “less” throughout. Moreover, the “rate of xylose consumption” value in data set [2] (cells treated with the higher chlorine dioxide dosages (300, 500 ppm) vs 50 ppm) is given as “significantly faster”. Also, the “xylitol fermentation product produced versus culture inoculated with the untreated slurry” value in data set [3] is on record as “produced more”. The “impact on yeast viability” value in the data set on Saccharomyces yeast (20 g/L yeast cell suspension, 250 ppm or higher) is “little to no impact”. Further, the “impact on the viability of the yeast” value in the data set on Saccharomyces yeast (200 g/L yeast suspension) and in the data set on Saccharomyces yeast (300 g/L yeast suspension) was “little or no impact” throughout.

Consider `OO` [hydrogen peroxide], for which the “reducing the viability of Lactobacillus” value in the data set on Lactobacillus strains (one of the Lactobacillus species tested) is “effective”.

Turning to `O=S(O)O` [sulfite], the “susceptibility of bacterial contaminants (two Lactobacillus strains)” value in the data set with Lactobacillus strains (treatment of yeast cells concentrated by filtration) is “susceptible to sulfite only in the presence of oxygen”.
